The values that follow come from patent publication US10022395B2 (UNIWERSYTET LÓDZKI, priority 2012, dated 2018).

Assay [1] has as its system CLL cells (leukemic lymphocytes, MNCs). The assay can be described thus: Mitochondrial membrane potential (CMXRos / anti-glycophorin A-FITC, flow cytometry). In kind it is cell-based, human. The following applies: for mean percentage of cells with lower mitochondrial potential (ΔΨm^low/Gly-A^−): 1.6 μM. The text has this: Mitochondrial membrane potential is an early indicator of apoptosis. CMXRos, i.e. Chloromethyl-X-rosamine (the reagent's name by Mito Tracker Red CMXRos, Molecular Probes, USA), and a monoclonal antibody to glycophorin A conjugated with FITC (the reagent's name of Anti-Glycophorin A FITC by Dako, Denmark) were used for its assessment. CMXRos is a lipophilic cationic dye that accumulates in the mitochondrial matrix of viable cells when there is an electronegative load on the inner surface of the mitochondrial membrane. This asymmetric location of protons along the inner mitochondrial membrane leads to a high mitochondrial membrane potential (ΔΨm) in living cells. A decreased ΔΨm is one of the first symptoms of apoptosis, and in effect lowering of the mitochondrial uptake of CMXRos.
The stock CMXRos solution was prepared by dilution of the substance supplied by the manufacturer in 94 μl. DMSO (dimethylsulphoxide), and stored at […]. Then working solution was prepared also using DMSO (1:10) and stored at 4° C. Mononuclear cells, i.e. leukemic lymphocytes, at 1×10^6 MNCs/ml concentration, were incubated with CMXRos (2.5 μl working solution in 500 μl RPMI 1640 medium) at 37° C. for 30 minutes. […] The samples were next measured using flow cytometry. The percentage of cells not bound to anti-glycophorin A-FITC (ΔΨm^low/GIy-A^− cells), with low mitochondrial potential, was calculated.
All fluorescence measurements were performed by a flow cytometer FACSCalibur (Becton Dickinson, USA) equipped with an argon laser 488nm and computer program CeliQuestPro (Becton Dickinson, USA). Each time 10 000cells were evaluated. The fluorescence was measured using standard emission filters: green—FL1 (wavelength λ=530±20 nm) and red—FL3 (λ>600 nm).
(In general: Flow cytometry measures light scatter and fluorescence of single cells or particles in a stream.)

The test system of the next assay is CLL cells (MEC-1). The assay can be described thus: Annexin-V / propidium iodide apoptosis test with 25%, 30%, 40%, 45% maltotriose dendrimers and FA. As to conditions: 1.6 μM. Type of assay: cell-based, human.

Values joined by “and” are separate entries in the source; they are usually repeats but may differ in a detail not shown here. Equal values may be shown once.

For the molecule `Nc1nc(F)nc2c1ncn2[C@@H]1O[C@H](CO)[C@@H](O)[C@@H]1O` [FA, fludarabine], the “mean percentage of cells with lower mitochondrial potential (ΔΨm^low/Gly-A^−)” value in assay [1] (24 h) was found to be 52.05%. In addition, the “mean percentage of cells with lower mitochondrial potential (ΔΨm^low/Gly-A^−)” value in assay [1] (48 h) is 74.49%. Further, in the assay on CLL cells (MEC-1) (24 h), the “Ann+ IP+ (late apoptosis), mean percentage of cells” value was 6.51% and 10.83% and 6.50%; the “Ann+ IP− (early apoptosis), mean percentage of cells” value is 3.82% and 3.98% and 3.77%; the “CAI (compensating apoptotic index)” value is 1.87% and 7.35% and 4.40%. Also, in the assay with CLL cells (MEC-1) (48 h), the “Ann− IP+ (necrosis), mean percentage of cells” value was 22.82% and 15.00% and 20.27%; the “CAI (compensating apoptotic index)” value was 6.98% and 7.80% and 12.83%.
Consider rituximab, for which the “apoptosis-inducing action (mitochondrial potential)” value in assay [1] (10 μg/ml) is “apoptosis-inducing action in order of spontaneous apoptosis”.
